In paper PMC7259601 (PLoS ONE, 2020):

Experiments:
[1] = target: T1, MAO-A (Mus musculus, UniProt Q64133); assay: L-5-HTP-induced symptoms test; assay type: in vivo, CD1 mice
T1 construct: from tissue; host or cells: mouse brain (homogenate ex vivo; living animal in the L-5-HTP test)
T1 sequence (Q64133 1-526): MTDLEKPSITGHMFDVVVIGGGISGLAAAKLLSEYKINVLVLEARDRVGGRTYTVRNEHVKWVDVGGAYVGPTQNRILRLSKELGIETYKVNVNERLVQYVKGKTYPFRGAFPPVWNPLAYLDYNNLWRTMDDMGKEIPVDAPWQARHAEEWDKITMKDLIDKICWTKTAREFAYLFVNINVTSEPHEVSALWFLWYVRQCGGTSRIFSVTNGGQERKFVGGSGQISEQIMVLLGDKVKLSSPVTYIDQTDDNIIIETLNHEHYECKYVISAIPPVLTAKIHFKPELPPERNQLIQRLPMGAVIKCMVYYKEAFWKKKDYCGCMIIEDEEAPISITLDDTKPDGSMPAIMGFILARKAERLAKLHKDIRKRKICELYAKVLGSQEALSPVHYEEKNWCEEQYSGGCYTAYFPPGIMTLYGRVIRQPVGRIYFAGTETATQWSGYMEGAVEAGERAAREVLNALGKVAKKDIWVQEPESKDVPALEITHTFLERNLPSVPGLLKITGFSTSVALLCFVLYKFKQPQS
Method: Male C57BL/6 mice (8 weeks of age, 25-30 g) procured from Harlan Interfauna Iberica were housed in the same condition that in MAO-B PEA section. This test was performed essentially as previously described. Test compound was administered p.o. at several dose levels to groups of mice (N = 10/dose) 60 min before an i.p. injection of L-5-HTP (100 mg/kg). This dose of 5-L-HTP produced no effects in control animals. […] Studies were performed in accordance with the institutional guidelines for the care and use of laboratory animals (European Communities Council Directive 86/609/EEC) established by the Ethical Committee for Animal Experimentation at the PRAAL-PCB.
This test was performed essentially as previously described [90](Koe et al., 1983). Test compound was administered p.o. at several dose levels 60 min before an i.p. injection of L-5-HTP. […] One score assigned to each symptom observed per animal, giving a maximal obtainable score of 30 per group of 10 mice.
Behavior was rated as outline above.

[2] = target: MAO-B (Mus musculus, UniProt Q8BW75); conditions: p.o. gavage, followed by 25 mg/kg PEA
Chain of MAO-B (Mus musculus, UniProt Q8BW75) (Q8BW75 whole entry): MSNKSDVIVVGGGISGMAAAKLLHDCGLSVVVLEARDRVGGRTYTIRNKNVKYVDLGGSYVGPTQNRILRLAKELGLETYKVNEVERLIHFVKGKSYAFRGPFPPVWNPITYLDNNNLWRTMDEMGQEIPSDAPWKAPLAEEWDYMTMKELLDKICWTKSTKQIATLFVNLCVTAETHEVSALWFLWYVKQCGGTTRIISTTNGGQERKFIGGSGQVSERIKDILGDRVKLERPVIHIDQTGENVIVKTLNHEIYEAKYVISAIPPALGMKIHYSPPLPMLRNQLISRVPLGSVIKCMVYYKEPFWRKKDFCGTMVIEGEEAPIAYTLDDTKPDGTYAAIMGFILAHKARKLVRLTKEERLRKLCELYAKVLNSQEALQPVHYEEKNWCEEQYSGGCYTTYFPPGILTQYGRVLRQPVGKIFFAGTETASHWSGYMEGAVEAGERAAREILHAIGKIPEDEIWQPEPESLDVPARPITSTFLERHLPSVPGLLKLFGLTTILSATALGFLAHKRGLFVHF

[3] = test system: SETD1 +/- mice; design: method as in PMID 31606247; conditions: cited from earlier work
[4] = test system: NMDA receptor NR1 subunit hypofunction mice; design: method as in PMID 30580376; conditions: cited from earlier work
[5] = test system: KDM1A-E8a KO mice; design: method as in PMID 26976584; conditions: cited from earlier work
[6] = target: T2, brain MAO-B (Mus musculus, UniProt Q8BW75); assay: MPTP neurotoxicity model; assay type: in vivo, C57BL/6 mice; conditions: i.p. 3 mg/kg
T2 construct: from tissue; host or cells: mouse brain (homogenate ex vivo; living animal in the MPTP and PEA tests)
T2 sequence (Q8BW75 whole entry): as above

[7] = test system: SAMP8 mice; assay: Novel Object Recognition Test (NORT); assay type: in vivo, mouse; conditions: 3 mg/kg/day (Exp4), p = 0.12
Method: Both male and female mice from the senescence accelerated strain SAMP8 and its control SAMR1 of different ages (see Table S3 for details) were used in these studies. Mice were breed in the animal facilities of the Pharmacy Faculty (University of Barcelona), maintained in a at 22 ± 2 °C controlled temperature in a 12 hr light / dark cycle (lights on at 8:00 am; 300 lux/0 lux) with ad libitum access to food (2018 TEKLAD, Harlan) and water. Male mice were housed individually (males) or in groups of 4-5 animals (females) in plastic colony boxes with a sawdust bedding material. […] SAMR1 mice treated with vehicle were included as a control. All drugs were administered via drinking water and diluted in vehicle. Drug concentration was calculated weekly in function of body weight and corrected in function of drinking water consumption. Cognitive function was evaluated by NORT, social behavior was evaluated by RI and anxiety and motor function were evaluated by EPM and OF. When necessary, animals were deeply anesthetized (80 mg/kg sodium pentobarbital) and brain samples (hippocampus, (prefrontal) cortex) were micro-dissected and processed according to the downstream analysis.
The protocol was performed as previously described. Briefly, animals were placed in a 90°- two-arm maze. Mice were habituated to the apparatus for 10 min during 3 consecutive days. On day 4, two identical novel objects (A+A or B+B) were placed at the end of each arm and animals performed a 10-min acquisition trial. A 10-min retention trial was carried out 2 hr after the acquisition trial with object A and B. Time exploring the novel (NO) and the familiar object (FO) was measured and a discrimination Index (DI) was defined as (NO-FO)/(NO+FO). In some experiments, a more restrictive threshold was applied and animals exploring less than 5 sec (NO+FO) were excluded from the analysis (Table S3).
Novel Object Recognition Test (NORT): Time exploring the novel (NO) and the familiar object (FO) was measured and a discrimination Index (DI) was defined as (NO-FO)/(NO+FO). In some experiments, a more restrictive threshold was applied and animals exploring less that 5 sec (NO+FO) were excluded from the analysis (Table S3). Open Field (OF): Locomotor activity was analyzed by video-tracking over the captured images using SMART® (v 2.5.21 (rat) or v3.0 (mice), PanLab, SLU, Spain).

[8] = test system: MAO-B; conditions: 3 mg/kg/day; cited from earlier work

N[C@@H]1C[C@H]1c1ccccc1 (racemic) [TCP, tranylcypromine]
ED50 potentiation of L-5-HTP-induced symptoms ([1]; p.o. gavage, followed by 100 mg/kg L-5-HTP i.p.): 1.4 mg/kg | ED50 potentiation of PEA-induced symptoms [2]: 1.1 mg/kg

N[C@H]1CC[C@H](N[C@@H]2C[C@H]2c2ccccc2)CC1 [Iadademstat]
cortical synaptic plasticity deficit and working memory [3]: reversed cortical synaptic plasticity deficit and the working memory

Cc1nnc(NC(=O)c2cccc([C@@H]3C[C@H]3NC3CCC3)c2)s1 [T-448]
learning function [4]: improved the learning function

C#CCN(C)[C@H](C)Cc1ccccc1 [SLG, selegiline]
ED50 ([1]; mouse, read-out: ED50 potentiation of L-5-HTP-induced symptoms): 42.2 mg/kg

O=C(CCCCCCC(=O)Nc1ccccc1)NO [SAHA]
deficient stress response and low anxiety phenotype [5]: rescued

C#CCN[C@@H]1CCc2ccccc21 [RSG, rasagiline]
protection against the MPTP insult [6]: full protection | NORT discrimination capacity [7]: tendency for improvement without reaching significance | MAO-B inhibition at the dose used [8]: complete MAO-B inhibition
